Earlier results, collected in US20030031676A1, “Conjugate compounds for treating atheroma and other diseases” (Pharmacyclics, Inc., priority 1999, published 2003).

Details: animal models

In the case of lutetium (III) texaphyrin, the radiation sensitization activity is listed as “lack of radiation sensitization activity”.
